Measured values from patent publication US20080118449A1, “COSMETIC FORMULATIONS OF PICEATANNOL AND RETINOIDS AND METHODS OF USE THEREOF” (priority 2006, published 2008).

What was measured:
[1] = test system: skin of the upper outer arm of 16 human volunteers; experiment: Skin irritant potential, modified human 4-h patch test; format: in vivo
Experimental: The skin irritant potential of the cosmetic compositions of Example 1 and Comparative Example 1 and 2 were determined using a modification of the human 4-h patch test (Basketter D A, et al., Food Chem Toxicol 1997,:35: 845-852), involving application of 0.2 ml of the composition to be tested on a 25 mm plain Hill Top Chamber containing a Webril pad (Hill Top Companies, Cincinatti, Ohio, USA) to the skin of the upper outer arm of 16 human volunteers. Both upper arms of the panelist were used. Patches were applied in a balanced random order.
After 24 hours, the patches were removed and then the test areas were marked with a marking pen. After each lapse of 24, 48 and 72 hours, the test areas were observed and treatment sites were assessed for the presence of irritation using a 4 point scale (Table 2) at 24, 48 and 72 h after patch removal

[2] = test system: skin wrinkles on the face of female subjects; experiment: Skin wrinkle improvement by computer aided laser profilometry (Skin Visiometer, silicone replicas); format: in vivo, human; conditions: 9 weeks
Experimental: The effects of the cosmetic compositions of Example 1 and Comparative Example 1 and 2 on skin wrinkle improvement were determined by computer aided laser profilometry.
It involved sixteen female subjects of 30 years and over. The cosmetic compositions of Example 1 and Comparative Examples 1 and 2 were applied on the face (area of 2×2 cm2) of the test subjects, once a day with dose of 0.05 g for 9 weeks. Then, replicas of their skin wrinkles were prepared using white plastic silicon precision moulding compound. The changes in the skin wrinkles of the replicas were detected with Skin Visiometer (SV600 manufactured by Courage+Khazaka electronic GmbH, Germany). Three-dimensional images of the replicas were analyzed with a CCD camera. The skin wrinkle improvement effect was determined as average roughness of the wrinkles (Rz) according to the following numerical formula I:
Rz=(R1+R2+ . . . +Rn−1+Rn)/Number of wrinkles(n) (I)
Wherein, Rn is the roughness of each wrinkle and n is the number of the wrinkles.

[3] = lotion type cosmetic preparation, 0.20 wt% with 0.20 wt% retinyl palmitate
[4] = solution type formulation, 0.2 wt% with 0.2 wt% retinyl palmitate
[5] = emulsion (lotion) type formulation

Structure (SMILES)	effect of addition on irritancy of retinyl palmitate [1, 3]	effect of addition on irritancy of retinyl palmitate [1, 4]	effect on retinoid wrinkle improvement [2, 5]	efficiency relative to piceatannol on wrinkle improvement ([2]; emulsion type cosmetic preparations)	effect on retinoid wrinkle improvement ([2]; solution type formulation)
OC[C@H]1O[C@@H](Oc2cc(O)cc(/C=C/c3ccc(O)c(O)c3)c2)[C@H](O)[C@@H](O)[C@@H]1O (relative stereo) [astringin, trans-(3,5,3′,4′-tetrahydroxystilbene)-3-O-beta-d-glucopyranoside]	clearly reduced the irritancy of retinyl palmitate	clearly reduced the irritancy of retinyl palmitate	enhances the effect of retinol on wrinkle improvement	seems to be m ore efficient than piceatannol	enhances the effect of retinol on wrinkle improvement
Oc1cc(O)cc(/C=C/c2ccc(O)c(O)c2)c1 [piceatannol, trans-3,4,3′,5′-tetrahydroxystilbene]	clearly reduced the irritancy of retinyl palmitate	clearly reduced the irritancy of retinyl palmitate	enhances the effect of retinol on wrinkle improvement	–	enhances the effect of retinol on wrinkle improvement
